# Measurements published in US20260191192A1, “ANTIMICROBIAL COMPOSITIONS COMPRISING PELARGONIC ACID” (LANXESS Corporation, priority 2023, published 2026).
# Assays:
# [1] = tested on: mixed bacterial inoculum (Table 6); assay: Challenge test (preservative efficacy), mixed bacterial inoculum, full pool (Table 6); format: cell-based
# Protocol: (§1) The preservative activity in representative rinse-off and leave-on formulations was evaluated using a modification of the Personal Care Products Council (PCPC—formerly the Cosmetic, Toiletry and Fragrance Association) protocol (Machtiger, et al. 2001. Determination of the Efficacy of Preservation of Non-Eye Area Water Miscible Cosmetic and Toiletry Formulations: Collaborative Study. J of AOAC International. 84:1, 101-109).
# (§2) This evaluation was conducted using a four week, two or three-cycle (i.e., two-cycle for personal care and three-cycle for home care applications) microbial preservative efficacy test (i.e., challenge test) at 25° C. to determine the preservative efficacy of each treatment. Phenoxyethanol, benzyl alcohol and pelargonic acid were tested alone and in various combinations. The pelargonic acid used in the testing was purchased from Sigma-Aldrich. Combinations of phenoxyethanol or benzyl alcohol with benchmark multifunctional booster compounds were also tested for comparison. The preservative and booster ingredients were dosed and mixed thoroughly at room temperature into various formulations, specifically different personal care formulations including a lotion (leave-on, Table 1), a micellar water (rinse-off, Table 2), and a body wash formulation (rinse-off, Table 3) and different home care formulations including a manual dishwashing formulation (Table 4) and a liquid laundry detergent formulation (Table 5). […] Carbomers are a commonly used synthetic rheological modifier in personal care products. The formulation below was made by heating the aqueous (A) and oil (B) phases separately to 75-80° C. The oil phase was then poured into the aqueous phase and mixed by a homogenizer at approximately 45° C. The formed oil-in-water emulsion was cooled to room temperature. Triethanolamine and/or diluted sodium hydroxide was used to adjust the final pH to 6.3 or 6.5 (as indicated in the examples below).
# (§3) After dosing, the samples were divided into two separate five gram aliquots. One aliquot was inoculated with 50 μl of a diluted bacterial pool, and the second aliquot was inoculated with 50 μl of a diluted fungal pool as described below. Unpreserved product samples were included as a growth control.
# (§4) For personal care products, a mixed bacterial inoculum was prepared using 24-hour cultures of the test bacteria (Table 6) grown in trypticase soy broth (TSB). For home care products, a mixed bacterial inoculum was prepared using 24-hour cultures of the test bacteria either from Table 6 (full pool) or Table 7 (simplified pool) grown in trypticase soy broth (TSB). Details are disclosed in the home care examples below. Equal volumes of the bacterial test strains were combined and diluted one to ten in phosphate buffer to obtain an inoculum of approximately 5×10^7 to 5×10^8 colony forming units per ml (cfu/ml). The test samples were inoculated with 1% of the mixed bacterial inoculum. For both personal care and home care products, a mixed fungal inoculum was prepared using cell suspensions of the yeast Candida albicans ATCC #10231 and the mold Aspergillus brasiliensis ATCC #16404 in phosphate buffer. Equal volumes of the fungal test strains were combined and diluted one to ten with phosphate buffer to obtain an inoculum of approximately 5×10^6 to 5×10^7 cfu/ml. The test samples were inoculated with 1% of the mixed fungal inoculum.
# (§5) For personal care products, the samples were subjected to two microbial challenges at time zero and inoculated a second time after seven days. For home care products, the samples were subjected to three microbial challenges at time zero and inoculated a second and third time after seven and fourteen days, respectively. The number of microorganisms added to each sample was determined by a standard Most Probable Number (MPN) determination in Trypticase Soy Broth (TSB) for bacteria and Potato Dextrose Broth (PDB) for fungi. Samples were incubated at 25° C. for the test duration of four weeks.
# [2] = tested on: mixed fungal inoculum: Candida albicans ATCC #10231 and Aspergillus brasiliensis ATCC #16404; assay: Challenge test (preservative efficacy), mixed fungal inoculum; format: cell-based
# Protocol: as §1, §2, §3, §4, §5
# [3] = tested on: bacteria (Table 6 pool) and fungi; assay: Challenge test, overall result (full bacteria pool and fungi); format: cell-based
# Protocol: as §1, §2, §3, §4, §5
# [4] = ZenBio Cupric Ion Chelating (CIC) Assay; format: physicochemical; details: calculated from a EDTA calibration curve, Pelargonic Acid at 775 μM
# Protocol: The chelation property of the pelargonic acid was measured by using the ZenBio Cupric Ion Chelating (CIC) Assay (Cat #AOX-16). The assay measured the capacity of the pelargonic acid to chelate free cupric ions in solution, thereby inhibiting Cu(II) binding to pyrocatechol violet (PV) for generating a highly colored complex. The absorbance of the Cupric-PV complex was measured at a wavelength of 632 nm. The cupric ion chelating activity was determined as the percent of total PV over the Cu(II) binding. Ethylenediaminetetraacetic acid (EDTA), a well-known chelating agent, was used as a positive control. A series of EDTA with 7 different concentrations from 0 to 1000 μM were prepared and their corresponding absorbance measured and used as the calibration curve (Cupric ion chelating (%) vs. EDTA concentration). Percent cupric ion chelating was determined following the following calculations and Equation 1. The background absorbance value by averaging the absorbance values of the three background wells (no CuSO4 or sample). The average background absorbance was then subtracted from all the sample absorbance values. The maximal absorbance value (Absmax) was determined by averaging the absorbance values of the three wells containing CuSO4, PV and assay buffer. Abstest in Equation 1 is the absorbance of the test sample.
# The calibration curve (Cupric ion chelating (%) vs. EDTA concentration) was fit by using a polynomial curve after log 10 transforming the concentrations (R2>0.98).
# [5] = tested on: mixed bacterial inoculum for home care (Table 7); assay: Challenge test (preservative efficacy), mixed bacterial inoculum, simplified pool (Table 7); format: cell-based, Pseudomonas aeruginosa, Staphylococcus aureus; details: dosed 1.0 wt %
# Protocol: as §1, §2, §3, §4, §5
# [6] = tested on: bacteria (Table 7 pool) and fungi; assay: Challenge test, overall result (simplified bacteria pool and fungi); format: cell-based; details: dosed 1.0 wt %
# Protocol: as §1, §2, §3, §4, §5
# [7] = body wash, pH 6.5, Example 1E, dosed 0.5 wt %
# [8] = micellar water, pH 6.0, bacteria inoculation ~10^7 cfu/ml, Example 1B, dosed 0.5 wt %
# [9] = micellar water, pH 6.0, Example 1B, dosed 0.5 wt %
# [10] = lotion with carbomer, pH 6.3, Example 1A, dosed 0.5 wt %
# [11] = lotion with carbomer, pH 6.3, Example 1A, dosed 1.0 wt %
# [12] = lotion with carbomer, pH 6.5, Example 1I, total dosing 0.8 wt %
# [13] = liquid laundry detergent, pH 7.5, Example 1H, dosed 1.0 wt %
# [14] = micellar water, pH 6.0, Example 1C, dosed 0.3 wt %
structure (smiles),measurement,setting,value
"CCCCC(CC)COCC(O)CO (stereo not shown) [2-ethyl-hexyl glycerin (EHG), 2-ethyl-hexyl glycerin]",Bacteria growth rating Result,[1]; [7],Fail (growth rating score caused by bacteria of 2 or more at days 21-28 of the testing period)
same,Bacteria growth rating Result,[1]; [8],Fail (growth rating score caused by bacteria of 2 or more at days 21-28 of the testing period)
same,Fungi growth rating Result,[2]; [7],Fail (growth rating score caused by fungi of more than 2 at days 21-28 of the testing period)
same,Fungi growth rating Result,[2]; [9],Fail (growth rating score caused by fungi of more than 2 at days 21-28 of the testing period)
same,Overall Result,[3]; [7],Fail
same,Overall Result,[3]; [9],Fail
same,Calculated EDTA equivalent,[4]; listed as Ethylhexylglycerin,~0 µM
same,Calculated EDTA equivalent,[4]; listed as ethylhexylglycerin,~ 0 μM
"CCCCCCCCC(=O)O [Pelargonic Acid, nonanoic acid]",Bacteria growth rating Result,[1]; [7],Fail (growth rating score caused by bacteria of 2 or more at days 21-28 of the testing period)
same,Bacteria growth rating Result,"[1]; liquid laundry detergent, pH 7.5, full bacteria pool, Example 1H, dosed 1.0 wt %",Fail (growth rating score caused by bacteria of 2 or more at days 21-28 of the testing period)
same,Bacteria growth rating Result,[1]; [10],Fail (growth rating score caused by bacteria of 2 or more at days 21-28 of the testing period)
same,Bacteria growth rating Result,[1]; [11],Fail (growth rating score caused by bacteria of 2 or more at days 21-28 of the testing period)
same,Bacteria growth rating Result,"[1]; lotion with carbomer, pH 6.3, Example 1D, dosed 0.8 wt %",Fail (growth rating score caused by bacteria of 2 or more at days 21-28 of the testing period)
same,Bacteria growth rating Result,[1]; [12],Fail (growth rating score caused by bacteria of 2 or more at days 21-28 of the testing period)
same,Bacteria growth rating Result,[1]; [8],Fail (growth rating score caused by bacteria of 2 or more at days 21-28 of the testing period)
same,Bacteria growth rating Result,"[1]; micellar water, pH 6.0, bacteria inoculation ~10^8 cfu/ml, Example 1C, dosed 0.3 wt %",Fail (growth rating score caused by bacteria of 2 or more at days 21-28 of the testing period)
same,Bacteria growth rating Result,"[5]; liquid laundry detergent, pH 7.5, simplified bacteria pool, Example 1G",Fail (growth rating score caused by bacteria of 2 or more at days 21-28 of the testing period)
same,Bacteria growth rating Result,"[5]; manual dishwashing formulation, pH 5.5, simplified bacteria pool, Example 1F",Fail (growth rating score caused by bacteria of 2 or more at days 21-28 of the testing period)
same,Fungi growth rating Result,[2]; [7],Pass (growth rating score caused by fungi of 2 or less at days 21-28 of the testing period)
same,Fungi growth rating Result,"[2]; liquid laundry detergent, pH 7.5, Example 1G, dosed 1.0 wt %",Fail (growth rating score caused by fungi of more than 2 at days 21-28 of the testing period)
same,Fungi growth rating Result,[2]; [13],Fail (growth rating score caused by fungi of more than 2 at days 21-28 of the testing period)
same,Fungi growth rating Result,[2]; [10],Fail (growth rating score caused by fungi of more than 2 at days 21-28 of the testing period)
same,Fungi growth rating Result,[2]; [11],Fail (growth rating score caused by fungi of more than 2 at days 21-28 of the testing period)
same,Fungi growth rating Result,[2]; [12],Fail (growth rating score caused by fungi of more than 2 at days 21-28 of the testing period)
same,Fungi growth rating Result,"[2]; manual dishwashing formulation, pH 5.5, Example 1F, dosed 1.0 wt %",Fail (growth rating score caused by fungi of more than 2 at days 21-28 of the testing period)
same,Fungi growth rating Result,[2]; [9],Fail (growth rating score caused by fungi of more than 2 at days 21-28 of the testing period)
same,Fungi growth rating Result,[2]; [14],Fail (growth rating score caused by fungi of more than 2 at days 21-28 of the testing period)
same,Overall Result,[3]; [7],Fail
same,Overall Result,[3]; [13],Fail
same,Overall Result,[3]; [10],Fail
same,Overall Result,[3]; [11],Fail
same,Overall Result,[3]; [12],Fail
same,Overall Result,[3]; [9],Fail
same,Overall Result,[3]; [14],Fail
same,Overall Result,"[6]; liquid laundry detergent, pH 7.5, Example 1G",Fail
same,Overall Result,"[6]; manual dishwashing formulation, pH 5.5, Example 1F",Fail
same,Calculated EDTA equivalent,[4],667 µM
